Values of other authors, collected in paper PMC3600422 (Journal of molecular biology, 2012).

What was measured:
cancer cells = conditions: Mcl-1 or Bfl-1 overexpressed
[1] = system: small cell lung carcinoma; conditions: mouse models

CN(C)CC[C@H](CSc1ccccc1)Nc1ccc(S(=O)(=O)NC(=O)c2ccc(N3CCN(Cc4ccccc4-c4ccc(Cl)cc4)CC3)cc2)cc1[N+](=O)[O-] [ABT-737]
Inducing death in cancer cells (cancer cells): ineffective in inducing death in cancer cells when these anti-apoptotic proteins are overexpressed | Binding to Mcl-1 (Mcl-1): do not bind to Mcl-1 | Tumor regression [1]: can regress or eliminate small cell lung carcinoma | Binding to Bfl-1 (Bfl-1): do not bind to Mcl-1 or Bfl-1
